Here are results for 13 compounds from ChEMBL document CHEMBL1201862, “PubChem BioAssay data set” (2004).

Assay in all cases: NCI-60 cell line screen, 48 h
Test [1] relates to K562.
The subject of test [2] is HCT-15.
Test [3] concerns Malme-3M.
Test [4] concerns OVCAR-8.
Test [5] has as its system NCI-H23.
Test [6] deals with HCC 2998.
The test system of test [7] is HCT-116.
Test [8] concerns OVCAR-5.
Test [9] has as its system UACC-62.
Test [10] deals with U-251.
Test [11] concerns HOP-62.
The subject of test [12] is CCRF-CEM.
Test [13] has as its system UO-31.
For test [14], the system named is COLO 205.
Test [15] concerns SNB-19.
Test [16] deals with PC-3.
For test [17], the system named is MDA-MB-435.
In test [18] the test system is T47D.
The subject of test [19] is NCI/ADR-RES.

Molecules are shown by their SMILES.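 Where inhibition never reached the appropriate level, the endpoint shown equals the highest concentration tested. Otherwise, values were interpolated linearly from a five-concentration, 48-hour dose response in 96-well plates. GI50: concentration for 50% inhibition of growth.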 Activity calls are given as the source filed them. Cut-off read from the data, not from the text of the source: active = GI50 up to about 1.1 µM and inactive = higher.

For `Oc1ccc2c(c1)OCC1(O)Cc3cc(O)c(O)cc3C21` (configuration not stated), the GI50 is 27.7 µM (inactive) in [1]; 20.2 µM in [2]; 16.9 µM (inactive) in test [3]; 21.9 µM (inactive) in test [4]; 18.1 µM (inactive) in test [5]; 21.2 µM (inactive) in test [6]. Also, the GI50 in [7] was 21 µM (inactive); in [8], 22.5 µM (inactive); in test [9] it was 19.7 µM (inactive); in [10], 18.7 µM (inactive); in [11], > 58.1 µM (inactive); in test [12], 29.7 µM (inactive). Further, the GI50 was 60.1 µM (inactive) in [13], 16.8 µM (inactive) in test [14] and 28.7 µM (inactive) in [15].

As to `CCOC(=O)C12CCCC1(O)N(NC(N)=O)C(C)=C2C(=O)OC` (configuration not stated), the GI50 in test [1] was > 100 µM (inactive); in test [2] it was greater than 100 µM; in test [3], > 100 µM (inactive); in test [4], > 100 µM (inactive); in test [5] it was > 100 µM (inactive); in [6] it was > 100 µM (inactive). Moreover, the GI50 in test [7], in test [8], in [9], in test [10], in [11] and in test [12] was > 100 µM (inactive) in each case. Moreover, the GI50 in [13], in [14] and in test [15] was > 100 µM (inactive) each time.

`COc1ccc(C(=O)C(c2ccc(OCc3ccccc3)cc2)c2ccc(OCc3ccccc3)cc2)cc1`: the GI50 in [1] is > 100 µM (inactive); in test [2], greater than 100 µM; in test [3] it was > 100 µM (inactive); in [4], > 100 µM (inactive); in test [5], > 100 µM (inactive); in [6] it was > 100 µM (inactive). Moreover, the GI50 in [7], in [8], in test [9], in [10], in [11] and in test [12] was > 100 µM (inactive) in each case. The GI50 in [13], in [14] and in test [15] was > 100 µM (inactive) throughout.

For the compound `O=C(/C=C\c1ccccc1)Oc1ccc(/C=C2\CCCCC2=O)cc1`, the GI50 in test [2] was 23.3 µM; in [3], 38.9 µM (inactive); in [4] it was 37.8 µM (inactive); in test [5], 45.8 µM (inactive); in test [6] it was 47.3 µM (inactive); in [7], 26.1 µM (inactive). Besides, the GI50 in [8] was > 100 µM (inactive); in test [9], 0.1 µM (active); in [16], 46.9 µM (inactive); in test [10] it was 30.4 µM (inactive); in test [17], 26.8 µM (inactive); in [11], 72.1 µM (inactive). The GI50 in test [12] was 4.98 µM (inactive); in test [13], 64.7 µM (inactive); in [14], 19.9 µM (inactive); in [15], > 100 µM (inactive); in test [18], 92.5 µM (inactive).

For `Cc1cc(O)nc(CNC(=O)c2ccc3ccccc3c2)n1`, the GI50 in test [1] is > 100 µM (inactive); in [2], greater than 100 µM; in test [3] it was > 100 µM (inactive); in [4], > 100 µM (inactive); in test [5] it was > 100 µM (inactive); in [6], > 100 µM (inactive). The GI50 in test [7], in test [8], in test [9], in test [10], in test [11] and in test [12] was > 100 µM (inactive) in each case. The GI50 in test [13], in [14] and in [15] was > 100 µM (inactive) throughout.

Regarding `CCCCCCCC(=O)OCC1OC(OC)C(NC(=O)N(CCCl)N=O)C(O)C1O` (configuration not stated), the GI50 was 12.4 µM (inactive) in test [1]; 3.27 µM in [2]; 13.3 µM (inactive) in test [3]; 18.2 µM (inactive) in [4]; 8.28 µM (inactive) in test [5]; 14.3 µM (inactive) in test [6]. In addition, the GI50 in test [7] was 3.22 µM (inactive); in test [8], 26.4 µM (inactive); in test [9] it was 1.86 µM (inactive); in [10], 4.91 µM (inactive); in test [11] it was 4.27 µM (inactive); in test [12], 4.06 µM (inactive). The GI50 in test [13] is 17.6 µM (inactive); in test [14], 14.7 µM (inactive); in [15], 14.5 µM (inactive).

For `CC(=O)OC1CC2CCN3C(=O)c4cc5c(cc4[C@H](C1OC(C)=O)C23)OCO5` (some centres not stated), the GI50 in test [1] was > 100 µM (inactive); in [2], greater than 100 µM; in [3] it was > 100 µM (inactive); in [4], > 100 µM (inactive); in [5] it was > 100 µM (inactive); in test [6] it was > 100 µM (inactive). Besides, the GI50 in test [7], in test [9], in test [10], in [11], in test [12] and in [13] was > 100 µM (inactive) throughout. In addition, the GI50 in test [14] and in test [15] was > 100 µM (inactive) in each case.

Take `O=C1CC[C@H](NC(=O)Cc2ccccc2)C(=O)N1` [ANTINEOPLASTON A10]: the GI50 in test [1] was > 1250 µM (inactive); in test [2], greater than 1250 µM; in [3], > 1250 µM (inactive); in test [4] it was > 1250 µM (inactive); in test [5] it was > 1250 µM (inactive); in [6] it was > 1250 µM (inactive). Further, the GI50 in test [7], in test [8], in [9], in test [10], in test [11] and in [12] was > 1250 µM (inactive) in each case. Also, the GI50 in test [13], in test [14] and in test [15] was > 1250 µM (inactive) each time.

With `Nc1ccccc1C(=O)/C=C/c1c(O)ccc2ccccc12`, the GI50 in test [1] is > 100 µM (inactive); in test [2] it was greater than 100 µM; in test [3], > 100 µM (inactive); in test [4], > 100 µM (inactive); in [5] it was > 100 µM (inactive); in test [6], > 100 µM (inactive). Further, the GI50 in [7], in test [8], in test [9], in [10], in [11] and in [12] was > 100 µM (inactive) in each case. Besides, the GI50 in [13], in [14] and in [15] was > 100 µM (inactive) each time.

On to `COc1cc2c(c(O)c1O)-c1ccc(OC)c(=O)cc1C(NC(C)=O)CC2` (configuration not stated), for which the GI50 in [1] is 3.64 µM (inactive); in test [2], greater than 95.1 µM; in test [3], 16.5 µM (inactive); in test [4], 15.6 µM (inactive); in [5] it was 5.06 µM (inactive); in test [6], 8.05 µM (inactive). Also, the GI50 in test [7] is 5.57 µM (inactive); in test [8], 76.6 µM (inactive); in [9], 6.98 µM (inactive); in test [10], 4.88 µM (inactive); in [11] it was 20.5 µM (inactive); in test [12] it was 3.49 µM (inactive). The GI50 is > 100 µM (inactive) in test [13], 3.87 µM (inactive) in test [14] and 5.07 µM (inactive) in test [15].

Take `BrCc1ccc2ccc3ccc(CBr)nc3c2n1`: the GI50 in test [1] was 2.53 µM (inactive); in test [2], 2.01 µM; in test [19], 1.86 µM (inactive); in test [4], 4.73 µM (inactive); in [5] it was 5.61 µM (inactive); in test [6] it was 2.86 µM (inactive). Moreover, the GI50 in test [7] is 2.34 µM (inactive); in [8], 9.44 µM (inactive); in test [9] it was 3.26 µM (inactive); in [16], 1.79 µM (inactive); in [10] it was 5.56 µM (inactive); in test [17], 4.12 µM (inactive). The GI50 in [11] was 7 µM (inactive); in test [12], 0.995 µM (active); in test [13], 2.12 µM (inactive); in test [14], 1.92 µM (inactive); in test [15], 12.7 µM (inactive); in [18], 1.42 µM (inactive).

Turning to `COC(=O)C1C=CCON2CCc3c(n(S(=O)(=O)c4ccccc4)c4ccccc34)C12` (configuration not stated), the GI50 in test [1] was 17.9 µM (inactive); in test [2] it was 50.8 µM; in test [3], > 64.7 µM (inactive); in test [4], 50.9 µM (inactive); in test [5], > 90.4 µM (inactive); in [6] it was 51.5 µM (inactive). Also, the GI50 in [7] was 39.3 µM (inactive); in test [8] it was > 100 µM (inactive); in test [9], > 49.4 µM (inactive); in [10], 25.2 µM (inactive); in test [11], > 39.2 µM (inactive); in test [12], 32.5 µM (inactive). For the same compound, the GI50 was 42.9 µM (inactive) in [13], 33.5 µM (inactive) in test [14] and > 46.6 µM (inactive) in [15].

Consider `O=Cc1c2c(cc3c1CC1(C3)Cc3cc4c(c(C=O)c3C1)CCC4)CCC2`, for which the GI50 is 14.4 µM (inactive) in test [1]; greater than 100 µM in test [2]; 68.2 µM (inactive) in [19]; 27.5 µM (inactive) in test [3]; 47.3 µM (inactive) in test [4]; 45.3 µM (inactive) in [5]. For the same compound, the GI50 in [6] was 36.6 µM (inactive); in test [7] it was 14.7 µM (inactive); in test [8], > 100 µM (inactive); in [9], 22.3 µM (inactive); in [16], 30.3 µM (inactive); in test [10], 16.3 µM (inactive). In addition, the GI50 in test [17] was 45.6 µM (inactive); in test [11], 17.1 µM (inactive); in [12] it was 17 µM (inactive); in [13] it was 2.37 µM (inactive); in test [14] it was 27.2 µM (inactive); in [18], 46.1 µM (inactive).
